Literature values in patent US20070098676A1, “FUNCTIONALLY DIVERSE MACROMOLECULES AND THEIR SYNTHESIS” (priority 2005, published 2007).

Tested on: RSV
Conditions: study conducted in 2001 (Huntley et al., 2002)

NC(=O)CN(CC(N)=O)S(=O)(=O)c1cccc(Nc2nc(Nc3cccc(S(=O)(=O)N(CC(N)=O)CC(N)=O)c3)nc(Nc3ccc(-c4ccc(Nc5nc(Nc6cccc(S(=O)(=O)N(CC(N)=O)CC(N)=O)c6)nc(Nc6cccc(S(=O)(=O)N(CC(N)=O)CC(N)=O)c6)n5)cc4S(=O)(=O)O)c(S(=O)(=O)O)c3)n2)c1 [RFI-641]
inhibition of RSV: potent and selective inhibitor of RSV
